{
  "source": "patent US20210052566A1",
  "about": "“METHODS FOR TREATING HEPATITIS B VIRUS (HBV) INFECTION” (INSERM (INSTITUT NATIONAL DE LA SANTÉ ET DE LA RECHERCHE …, priority 2018, published 2021)",
  "key": {"HDV genotype 1": {"test_system": "HDV genotype 1", "assay": "Establishment of HDV infection in dHepaRG (treatment 24 h before and during inoculation)", "format": "cell-based, hepatitis delta virus", "conditions": "1C8 10 microM, Entry Inh. 100 nM", "procedure": "(§1) FIG. 1. Experimental outlines. Treatment schemes: (a) Treatments in pre-infection: dHepaRG cells were treated for 24 h (at day −1) with 100 nM of PreS1 peptide (PreS1-pep) or 10 μM of 1C8, or untreated (NT). At day 0, cells were inoculated with HBV (MOI=250) or with HDV (MOI=25) in the presence of drugs for 24 h. For the tenofovir control (TDF at 10 μM), cells were treated at day 1 and 4 post-infection. Supernatant and cells were harvested at day 7 post-infection. (b) Treatments in post-infection: dHepaRG cells were inoculated with HBV (MOI=250) or with HDV (MOI=25). At days 4, 7 and 9 post infection, cells were treated with TDF 10 μM, lamivudine (3TC) at 10 μM, 1C8 10 μM or untreated (NT). Supernatant and cells were harvested at day 11 postinfection.\nFIG. 7. Effect of 1C8 on de novo establishment of ccDNA in dHepaRG (genotype D). […] B) HBs and HBe secreted antigens in supernatant were quantiUied by ELISA, whereas HBV DNA contained in virions was quantified by qPCR after viral nucleic acid extraction from supernatant. […] Statistics were done by two-tailed Mann-Whitney test, with following signiUicativity: *P<0.05, **P<0.01, ***P<0.001, ****P<0.0001. nd=not determined."}, "HBV genotype D": {"test_system": "HBV genotype D", "assay": "Anti-HBV properties in persistently infected dHepaRG cells, genotype D (post-infection treatment)", "format": "cell-based, Hepatitis B virus", "procedure": "as §1\nFIG. 5. Anti-HBV properties of 1C8 in persistently infected dHepaRG cells: genotype D. Differentiated HepaRG were infected with HBV genotype D at a MOI of 100 vge/cell or HDV genotype 1 at a MOI of 10 vge/cell for 7 days before being treated trice every 2-3 days with indicated molecules at a concentration of 10 microM. A) Total DNA and RNA were extracted from cells and subjected to qPCR and RTqPCR to detect HBV cccDNA, total HBV RNA or pregenomic HBV RNA. B) HBs and HBe secreted antigens in supernatant were quantified by ELISA, whereas HBV DNA contained in virions was quantified by qPCR after viral nucleic acid extraction from supernatant. C) Intracellular HDV RNA was quantified by RTqPCR after total RNA extraction from cells. D) Viability was monitored in 1C8-treated (or control treated; puromycin is a positive toxic molecule) cells by CellTiter-Glo® luminescent cell viability assay. Results are the mean+SEM of n=3 performed with 3 different differentiations of HepaRG. Statistics were done by two-tailed Mann-Whitney test, with following significativity: *P<0.05, **P<0.01, ***P<0.001, ****P<0.0001. nd=not determined\nHuman liver progenitor HepaRG cells were cultured in Williams medium (ThermoFisher) supplemented with 10% of FBS (Perbio), Penicillin/Streptomycin (500 U/mL), glutamine (2 mM), hydrocortisone Upjohn (2.5 mg/L; Serb laboratory), insulin (5 mg/L; Sigma Aldrich). For the differentiation process 2% of DMSO was added to the above-described supplemented Williams medium. […] The multiplicity of infection (MOI; expressed as virus genome equivalent/cell) is indicated in the figure legends, but was of 100 vge/cell if not precised.\nFrom cell culture supernatants, secreted HBe and HBs antigens were quantified by ELISA, using a chemiluminescence immunoassay kit (Autobio, China) following manufacturer's instructions. […]\nA HBV standard was used for quantification of extracellular viral DNA and RNA. […]"}},
  "data": [
    {"smiles": "Cn1ccc(=O)c(C(=O)Nc2nsc3ccc([N+](=O)[O-])cc23)c1", "note": "[1C8, 4-pyridinonebenzisothiazole carboxamide]", "values": [
      {"measurement": "block of the establishment of HDV infections", "setting": "HDV genotype 1", "value": "unable to block"},
      {"measurement": "reduction of secretion of viral antigens (HBs and HBeAg) in cell culture supernatant", "setting": "HBV genotype D; 10 microM three times, ELISA", "value": "60-70%"},
      {"measurement": "reduction of HBV virions (secreted HBV DNA) in cell culture supernatant", "setting": "HBV genotype D; 10 microM three times, qPCR", "value": "60-70%"},
      {"measurement": "reduction of the accumulation of intracellular HBV RNA", "setting": "HBV genotype D; MOI 100 vge/cell, treated three times every 2-3 days with 10 microM", "value": "60-70%"}
    ]}
  ]
}
